Reference: paper PMC3542614 (Cell Death & Disease, 2012)

Columns and labels:
Bcl-B = details: cited from earlier work
Bcl-B:Bim complex = target: T1, Bcl-B:Bim complex (Homo sapiens, UniProt Q9HD36, C138S/C30S); assay: SPR competition assay: displacement of Bim-BH3 from the Bcl-B:6His-Bim complex; format: binding; details: BH3 peptides between 1.25 and 40 μM
T1 sequence (Q9HD36 12-177 C30S/C138S): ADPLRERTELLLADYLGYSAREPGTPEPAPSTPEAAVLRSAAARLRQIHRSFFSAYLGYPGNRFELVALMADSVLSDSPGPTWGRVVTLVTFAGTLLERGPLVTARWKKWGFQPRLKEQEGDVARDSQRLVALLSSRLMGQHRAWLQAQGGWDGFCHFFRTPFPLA

[1] = target: Bcl-BΔC27 (C-terminally truncated Bcl-B, residues A2–A167, cysteines 20 and 128 mutated to serine) (human); assay: SPR

Displacement of Bim from the Bcl-B:Bim complex (Bcl-B:Bim complex) | IC50 [1] | Compound | Binding to Bcl-B (Bcl-B)
failed to displace Bim |  | CN(C)CC[C@H](CSc1ccccc1)Nc1ccc(S(=O)(=O)NC(=O)c2ccc(N3CCN(Cc4ccccc4-c4ccc(Cl)cc4)CC3)cc2)cc1[N+](=O)[O-] [ABT-737] | does not bind Bcl-B
 | 6.6 µM | Bax-BH3 peptide | 
 | 113 µM | Bik-BH3 peptide | 
